Counter-ions that a name gives are not always drawn.
Target: recombinant Human Phosphodiesterase B2 (PDE4B2) (Homo sapiens, UniProt Q07343)
Assay: Human Phosphodiesterase B2 Radiometric Assay (yttrium silicate SPA beads, [3H]cyclic AMP)
Format: biochemical
Details: recombinant human PDE4B2, radiometric SPA assay, 8 nM [3H]cyclic AMP; read-out: PDE4B2 pIC50 (converted)
Protocol: Human Phosphodiesterase B2 Radiometric Assay
The assay uses recombinant Human Phosphodiesterase B2 (PDE4B2) produced in house (PrAZL0163), stored at −20° C. This assay is based on the observation that 5′AMP, the product of the reaction catalysed by PDE4, binds preferentially to yttrium silicate SPA beads (Amersham Biosciences, UK) compared to the substrate, cAMP. Compounds at the appropriate concentration were preincubated at 30 C for 30 min with an assay buffer containing 50 mM HEPES (pH 7.5), 8.3 mM MgCl2, 1.7 mM EGTA, 0.01% (w/v) Brij° 35 and 0.1 mg/mL recombinant PDE4B2. The reaction was started by the addition of [3H]cyclic AMP to give a final concentration of 8 nM, and was stopped 20 minutes after the addition of the substrate by the addition of yttrium silicate SPA beads containing 18 mM Zn SO4. Bound [3H]cyclic AMP was measured using a Topcount NXT (Packard Bioscience, UK). pIC50 values (presented in Table 15) were determined using Xlfit3 curve fitting, using model 205.

Sequence of recombinant Human Phosphodiesterase B2 (PDE4B2) (Q07343 1-564 isoform Q07343-2): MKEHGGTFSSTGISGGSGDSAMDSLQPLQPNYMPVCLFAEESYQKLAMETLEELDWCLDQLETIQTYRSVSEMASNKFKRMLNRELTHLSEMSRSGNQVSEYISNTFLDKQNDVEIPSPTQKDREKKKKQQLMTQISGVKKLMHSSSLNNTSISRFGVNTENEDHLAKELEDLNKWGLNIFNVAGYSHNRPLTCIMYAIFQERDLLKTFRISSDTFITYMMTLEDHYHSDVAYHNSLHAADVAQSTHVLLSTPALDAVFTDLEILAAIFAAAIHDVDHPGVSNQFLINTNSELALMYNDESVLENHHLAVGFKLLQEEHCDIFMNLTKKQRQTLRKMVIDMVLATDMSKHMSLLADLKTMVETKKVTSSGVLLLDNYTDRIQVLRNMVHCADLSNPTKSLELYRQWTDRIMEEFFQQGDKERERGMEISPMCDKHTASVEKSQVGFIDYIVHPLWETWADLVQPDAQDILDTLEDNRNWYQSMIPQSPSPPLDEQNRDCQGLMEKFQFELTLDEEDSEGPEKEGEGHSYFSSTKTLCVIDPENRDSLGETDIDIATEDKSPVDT

IC50 [nM]	Structure (SMILES)
0.02	O=C(N[C@H]1CC[C@@H](n2c(=O)c3cc(F)cnc3n(-c3cccc(-c4ccc(CCCO)cc4)c3)c2=O)CC1)c1cn2cc(F)ccc2n1 [Example 20, 6-fluoro-N-{cis-4-[6-fluoro-1-[4′-(3-hydroxypropyl)biphenyl-3-yl]-2,4-dioxo-1,4-dihydropyrido[2,3-d]pyrimidin-3(2H)-yl]cyclohexyl}imidazo[1,2-a]pyridine-2-carboxamide.]
0.0501	CC(C)(C)OC(=O)NCc1ccc(-c2cccc(-n3c(=O)n([C@H]4CC[C@@H](NC(=O)c5cn6cc(F)ccc6n5)CC4)c(=O)c4cc(F)cnc43)c2)cc1 [Example 21, tert-butyl ({3′-[6-fluoro-3-(cis-4-{[(6-fluoroimidazo[1,2-a]pyridin-2-yl)carbonyl]amino}cyclohexyl)-2,4-dioxo-3,4-dihydropyrido[2,3-d]pyrimidin-1(2H)-yl]biphenyl-4-yl}methyl)carbamate.]
0.0251	O=C(N[C@H]1CC[C@@H](n2c(=O)c3cc(F)cnc3n(-c3cccc(-c4ccc(O)cc4)c3)c2=O)CC1)c1cn2cc(F)ccc2n1 [Example 22, 6-fluoro-N-{cis-4-[6-fluoro-1-(4′-hydroxybiphenyl-3-yl)-2,4-dioxo-1,4-dihydropyrido[2,3-d]pyrimidin-3(2H)-yl]cyclohexyl}imidazo[1,2-a]pyridine-2-carboxamide.]
0.0398	Cc1cc(O)ccc1-c1cccc(-n2c(=O)n([C@H]3CC[C@@H](NC(=O)c4cn5cc(F)ccc5n4)CC3)c(=O)c3cc(F)cnc32)c1 [Example 23, 6-fluoro-N-{cis-4-[6-fluoro-1-(4′-hydroxy-2′-methylbiphenyl-3-yl)-2,4-dioxo-1,4-dihydropyrido[2,3-d]pyrimidin-3(2H)-yl]cyclohexyl}imidazo[1,2-a]pyridine-2-carboxamide.]
0.00794	O=Cc1ccc(-c2cccc(-n3c(=O)n([C@H]4CC[C@@H](NC(=O)c5cn6cc(F)ccc6n5)CC4)c(=O)c4cc(F)cnc43)c2)cc1 [Example 24, 6-fluoro-N-{cis-4-[6-fluoro-1-(4′-formylbiphenyl-3-yl)-2,4-dioxo-1,4-dihydropyrido[2,3-d]pyrimidin-3(2H)-yl]cyclohexyl}imidazo[1,2-a]pyridine-2-carboxamide.]
0.0251	O=C(N[C@H]1CC[C@@H](n2c(=O)c3cc(F)cnc3n(-c3cccc(-c4ccc(CO)cc4)c3)c2=O)CC1)c1cn2cc(F)ccc2n1 [Example 25, 6-fluoro-N-{cis-4-[6-fluoro-1-[4′-(hydroxymethyl)biphenyl-3-yl]-2,4-dioxo-1,4-dihydropyrido[2,3-d]pyrimidin-3(2H)-yl]cyclohexyl}imidazo[1,2-a]pyridine-2-carboxamide.]
0.0501	O=C(N[C@H]1CC[C@@H](n2c(=O)c3cc(F)cnc3n(-c3cccc(-c4ccccc4O)c3)c2=O)CC1)c1cn2cc(F)ccc2n1 [Example 26, 6-fluoro-N-{cis-4-[6-fluoro-1-(2′-hydroxybiphenyl-3-yl)-2,4-dioxo-1,4-dihydropyrido[2,3-d]pyrimidin-3(2H)-yl]cyclohexyl}imidazo[1,2-a]pyridine-2-carboxamide.]
0.251	O=C(O)c1ccc(-c2cccc(-n3c(=O)n([C@H]4CC[C@@H](NC(=O)c5cn6cc(F)ccc6n5)CC4)c(=O)c4cc(F)cnc43)c2)cc1 [Example 27, 3′-[6-fiuoro-3-(cis-4-{[(6-fluoroimidazo[1,2-a]pyridin-2-yl)carbonyl]amino}cyclohexyl)-2,4-dioxo-3,4-dihydropyrido[2,3-d]pyrimidin-1(2H)-yl]biphenyl-4-carboxylic acid]
0.0126	O=C(N[C@H]1CC[C@@H](n2c(=O)c3cc(F)cnc3n(-c3cccc(-c4ccc(CN5CCOCC5)cc4)c3)c2=O)CC1)c1cn2cc(F)ccc2n1 [Example 28, 6-fluoro-N-{cis-4-[6-fluoro-1-[4′-(morpholin-4-ylmethyl)biphenyl-3-yl]-2,4-dioxo-1,4-dihydropyrido[2,3-d]pyrimidin-3(2H)-yl]cyclohexyl}imidazo[1,2-a]pyridine-2-carboxamide.]
0.0794	O=C(N[C@H]1CC[C@@H](n2c(=O)c3cc(F)cnc3n(-c3cccc(-c4ccc(C(F)(F)F)cc4)c3)c2=O)CC1)c1cn2cc(F)ccc2n1 [Example 29, 6-fluoro-N-{cis-4-[6-fluoro-2,4-dioxo-1-[4′-(trifluoromethyl)biphenyl-3-yl]-1,4-dihydropyrido[2,3-d]pyrimidin-3(2H)-yl]cyclohexyl}imidazo[1,2-a]pyridine-2-carboxamide.]
0.0158	CSc1ncc(-c2cccc(-n3c(=O)n([C@H]4CC[C@@H](NC(=O)c5cn6cc(F)ccc6n5)CC4)c(=O)c4cc(F)cnc43)c2)cn1 [Example 30, 6-fluoro-N-{cis-4-[6-fluoro-1-{3-[2-(methylthio)pyrimidin-5-yl]phenyl}-2,4-dioxo-1,4-dihydropyrido[2,3-d]pyrimidin-3(2H)-yl]cyclohexyl}imidazo[1,2-a]pyridine-2-carboxamide.]
0.501	NCc1cccc(-c2cccc(-n3c(=O)n([C@H]4CC[C@@H](NC(=O)c5cn6cc(F)ccc6n5)CC4)c(=O)c4cc(F)cnc43)c2)c1 [Example 31, N-{cis-4-[1-[3′-(aminomethyl)biphenyl-3-yl]-6-fluoro-2,4-dioxo-1,4-dihydropyrido[2,3-d]pyrimidin-3(2H)-yl]cyclohexyl}-6-fluoroimidazo[1,2-a]pyridine-2-carboxamide. Hydrochloride]
0.158	NCc1ccc(-c2cccc(-n3c(=O)n([C@H]4CC[C@@H](NC(=O)c5cn6cc(F)ccc6n5)CC4)c(=O)c4cc(F)cnc43)c2)cc1 [Example 32, N-{cis-4-[1-[4′-(aminomethyl)biphenyl-3-yl]-6-fluoro-2,4-dioxo-1,4-dihydropyrido[2,3-d]pyrimidin-3(2H)-yl]cyclohexyl}-6-fluoroimidazo[1,2-a]pyridine-2-carboxamide Hydrochloride]
0.01	CN(C)Cc1ccccc1-c1cccc(-n2c(=O)n([C@H]3CC[C@@H](NC(=O)c4cn5cc(F)ccc5n4)CC3)c(=O)c3cc(F)cnc32)c1 [Example 33, N-{cis-4-[1-{2′-[(dimethylamino)methyl]biphenyl-3-yl}-6-fluoro-2,4-dioxo-1,4-dihydropyrido[2,3-d]pyrimidin-3(2H)-yl]cyclohexyl}-6-fluoroimidazo[1,2-c]pyridine-2-carboxamide.]
0.126	O=C(N[C@H]1CC[C@@H](n2c(=O)c3cc(F)cnc3n(-c3cccc(Cc4ccccc4)c3)c2=O)CC1)c1cn2ccccc2n1 [Example 34, N-{cis-4-[1-(3-benzylphenyl)-6-fluoro-2,4-dioxo-1,4-dihydropyrido[2,3-c]pyrimidin-3(2H)-yl]cyclohexyl}imidazo[1,2-a]pyridine-2-carboxamide]
6.31	O=C(N[C@H]1CC[C@@H](n2c(=O)c3cc(F)cnc3n(-c3ccc4c(cnn4Cc4ccccc4)c3)c2=O)CC1)c1cn2ccccc2n1 [Example 35, N-{cis-4-[1-(1-benzyl-1H-indazol-5-yl)-6-fluoro-2,4-dioxo-1,4-dihydropyrido[2,3-d]pyrimidin-3(2H)-yl]cyclohexyl}imidazo[1,2-a]pyridine-2-carboxamide]
6.31	CC(C)CCCC(C)n1c(=O)n([C@H]2CC[C@@H](NC(=O)c3cn4cc(F)ccc4n3)CC2)c(=O)c2cc(F)cnc21 (stereo partly drawn) [Example 36, N-{cis-4-[1-(1,5-dimethylhexyl)-6-fluoro-2,4-dioxo-1,4-dihydropyrido[2,3-d]pyrimidin-3(2H)-yl]cyclohexyl}-6-fluoroimidazo[1,2-a]pyridine-2-carboxamide]
